Test results from patent US8273890B2 (4SC AG, priority 2007, dated 2012).
pIC50: −log10 of the molar value.

Key:
recombinant Plk1 protein = target: T1, recombinant Plk1 protein (Homo sapiens, UniProt P53350); experiment: Plk1 kinase activity inhibition assay (33P-ATP, alpha casein substrate, flash plates); assay type: biochemical; conditions: enzymatic assay, 100 nM Li-ATP, 80 minutes at 30° C.
T1 construct: histidine tag (N); made in house; host or cells: SF9 insect cells
In short: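 N-terminally His-tagged human Plk1 from SF9 cells (50–100 ng/well) phosphorylated alpha casein (500 ng/well) with 100 nM ATP including 33P-ATP at pH 7.5, with Mg2+ and Mn2+, 80 min at 30 °C. 33P incorporation read on scintillator-coated flash plates; IC50 derived.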

T1 sequence (P53350 whole entry): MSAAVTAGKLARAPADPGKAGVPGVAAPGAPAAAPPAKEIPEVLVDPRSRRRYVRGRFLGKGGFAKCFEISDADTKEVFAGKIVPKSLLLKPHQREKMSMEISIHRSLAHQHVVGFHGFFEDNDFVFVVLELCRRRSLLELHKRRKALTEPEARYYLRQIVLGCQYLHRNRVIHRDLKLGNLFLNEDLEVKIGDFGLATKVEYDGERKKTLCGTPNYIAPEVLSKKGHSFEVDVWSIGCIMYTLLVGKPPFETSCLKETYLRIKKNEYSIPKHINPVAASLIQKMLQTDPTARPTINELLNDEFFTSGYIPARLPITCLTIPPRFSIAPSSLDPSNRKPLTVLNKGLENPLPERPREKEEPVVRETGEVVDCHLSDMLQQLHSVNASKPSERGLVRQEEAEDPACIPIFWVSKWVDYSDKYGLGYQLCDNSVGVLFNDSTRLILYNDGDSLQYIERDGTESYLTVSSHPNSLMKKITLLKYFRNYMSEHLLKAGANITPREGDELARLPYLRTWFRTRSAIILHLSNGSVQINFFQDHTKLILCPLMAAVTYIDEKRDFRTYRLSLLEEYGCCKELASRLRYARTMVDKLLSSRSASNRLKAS

Q: With `NC(=O)c1sc(-n2cnc3cnc(Cl)cc32)cc1OCc1ccccc1C(F)(F)F` [Example 1, 5-(6-Chloro-1H-imidazo[4,5-c]pyridin-1-yl)-3-{[2-(trifluoromethyl)benzyl]oxy}thiophene-2-carboxamide] as the compound, how does the pIC50 (recombinant Plk1 protein) read?
A: 7.00 to 8.00

Q: What about the melting point of the same compound?
A: 248 to 249 °C (dec.)

Q: Which results are given for `NC(=O)c1sc(-n2cnc3cnccc32)cc1OCc1ccccc1C(F)(F)F` [Example 2, 5-(1H-Imidazo[4,5-c]pyridin-1-yl)-3-{[2-(trifluoromethyl)benzyl]oxy}thio-phene-2-carboxamide]?
A: pIC50 (recombinant Plk1 protein): 7.00 to 8.00; melting point: 226 to 227 °C (dec.)

Q: With `C[C@@H](Oc1cc(-n2cnc3cnc(CNCCN4CCOCC4)cc32)sc1C(N)=O)c1ccccc1C(F)(F)F` [Example 147, 5-(6-{[(2-morpholin-4-ylethyl)amino]methyl}-1H-imidazo[4,5-c]pyridin-1-yl)-3-{(1R)-1-[2-(trifluoromethyl)phenyl]ethoxy}thiophene-2-carboxamide] as the compound, how does the pIC50 (recombinant Plk1 protein) read?
A: 7.00 to 8.00

Q: With `C[C@@H](Oc1cc(-n2cnc3cnc(CN4CCN(C)CC4)cc32)sc1C(N)=O)c1ccccc1C(F)(F)F` [Example 24, 5-{6-[(4-methylpiperazin-1-yl)methyl]-1H-imidazo[4,5-c]pyridin-1-yl}-3-{(1R)-1-[2-(trifluoromethyl)phenyl]ethoxy}thiophene-2-carboxamide] as the compound, how does the pIC50 (recombinant Plk1 protein) read?
A: > 8.00

Q: With `Cc1ccccc1C(C)Oc1cc(-n2cnc3cnc(CN4CCN(C)CC4)cc32)sc1C(N)=O` (stereo not shown) [Example 148, 3-[1-(2-methylphenyl)ethoxy]-5-{6-[(4-methylpiperazin-1-yl)methyl]-1H-imidazo[4,5-c]pyridin-1-yl}thiophene-2-carboxamide] as the compound, how does the pIC50 (recombinant Plk1 protein) read?
A: > 8.00

Q: With `C[C@@H](Oc1cc(-n2cnc3cnc(CNC4CCN(C)CC4)cc32)sc1C(N)=O)c1ccccc1C(F)(F)F` [Example 73, 5-(6-{[(1-methylpiperidin-4-yl)amino]methyl}-1H-imidazo[4,5-c]pyridin-1-yl)-3-{(1R)-1-[2-(trifluoromethyl)phenyl]ethoxy}thiophene-2-carboxamide] as the compound, how does the pIC50 (recombinant Plk1 protein) read?
A: > 8.00

Q: With `CC1CN(Cc2cc3c(cn2)ncn3-c2cc(O[C@H](C)c3ccccc3C(F)(F)F)c(C(N)=O)s2)C(C)CN1` (stereo partly drawn) [Example 83, 5-{6-[(2,5-dimethylpiperazin-1-yl)methyl]-1H-imidazo[4,5-c]pyridin-1-yl}-3-{(1R)-1-[2-(trifluoromethyl)phenyl]ethoxy}thiophene-2-carboxamide] as the compound, how does the pIC50 (recombinant Plk1 protein) read?
A: 7.00 to 8.00

Q: With `CCC(Oc1cc(-n2cnc3cnc(CO)cc32)sc1C(N)=O)c1ccccc1Cl` (stereo not shown) [Example 56, 3-{[1-(2-chlorophenyl)propyl]oxy}-5-[6-(hydroxymethyl)-1H-imidazo[4,5-c]pyridin-1-yl]thiophene-2-carboxamide] as the compound, how does the pIC50 (recombinant Plk1 protein) read?
A: > 8.00

Q: With `CC(Oc1cc(-n2cnc3cnc(CN4CCN(C)CC4)cc32)sc1C(N)=O)c1ccc(F)cc1C(F)(F)F` (stereo not shown) [Example 97, 3-{1-[4-fluoro-2-(trifluoromethyl)phenyl]ethoxy}-5-{6-[(4-methylpiperazin-1-yl)methyl]-1H-imidazo[4,5-c]pyridin-1-yl}thiophene-2-carboxamide] as the compound, how does the pIC50 (recombinant Plk1 protein) read?
A: > 8.00

Q: With `COc1ccc2ncn(-c3cc(OCc4ccccc4C(F)(F)F)c(C(N)=O)s3)c2n1` [Example 22, 5-(5-methoxy-3H-imidazo[4,5-b]pyridin-3-yl)-3-{[2-(trifluoromethyl)benzyl]oxy}thiophene-2-carboxamide] as the compound, how does the pIC50 (recombinant Plk1 protein) read?
A: > 8.00

Q: With `CCN1CCN(Cc2cc3c(cn2)ncn3-c2cc(OC(C)c3ccccc3F)c(C(N)=O)s2)CC1` (stereo not shown) [Example 152, 5-{6-[(4-ethylpiperazin-1-yl)methyl]-1H-imidazo[4,5-c]pyridin-1-yl}-3-[1-(2-fluorophenyl)ethoxy]thiophene-2-carboxamide] as the compound, how does the pIC50 (recombinant Plk1 protein) read?
A: 7.00 to 8.00

Q: With `C[C@@H](Oc1cc(-n2cnc3cnc(CN4CCN(C5CC5)CC4)cc32)sc1C(N)=O)c1ccccc1C(F)(F)F` [Example 60, 5-{6-[(4-cyclopropylpiperazin-1-yl)methyl]-1H-imidazo[4,5-c]pyridin-1-yl}-3-{(1R)-1-[2-(trifluoromethyl)phenyl]ethoxy}thiophene-2-carboxamide] as the compound, how does the pIC50 (recombinant Plk1 protein) read?
A: > 8.00

Q: With `C[C@@H](Oc1cc(-n2cnc3cnc(CN4CCN(C)CC4)cc32)sc1C(N)=O)c1ccccc1F` [Example 101, 3-[(1R)-1-(2-fluorophenyl)ethoxy]-5-{6-[(4-methylpiperazin-1-yl)methyl]-1H-imidazo[4,5-c]pyridin-1-yl}thiophene-2-carboxamide] as the compound, how does the pIC50 (recombinant Plk1 protein) read?
A: > 8.00

Q: With `CCC(Oc1cc(-n2cnc3cnc(CN4CCCN(C)CC4)cc32)sc1C(N)=O)c1ccccc1Cl` (stereo not shown) [Example 141, 3-{[1-(2-chlorophenyl)propyl]oxy}-5-{6-[(4-methyl-1,4-diazepan-1-yl)methyl]-1H-imidazo[4,5-c]pyridin-1-yl}thiophene-2-carboxamide] as the compound, how does the pIC50 (recombinant Plk1 protein) read?
A: 7.00 to 8.00

Q: With `C[C@@H](Oc1cc(-n2cnc3cnc(CN4CCOCC4)cc32)sc1C(N)=O)c1ccccc1C(F)(F)F` [Example 62, 5-[6-(morpholin-4-ylmethyl)-1H-imidazo[4,5-c]pyridin-1-yl]-3-{(1R)-1-[2-(trifluoromethyl)phenyl]ethoxy}thiophene-2-carboxamide] as the compound, how does the pIC50 (recombinant Plk1 protein) read?
A: 7.00 to 8.00

Q: With `C[C@@H](Oc1cc(-n2cnc3cnc(CN4CCN(CC5CCN(C)CC5)CC4)cc32)sc1C(N)=O)c1ccccc1C(F)(F)F` [Example 85, 5-[6-({4-[(1-methylpiperidin-4-yl)methyl]piperazin-1-yl}methyl)-1H-imidazo[4,5-c]pyridin-1-yl]-3-{(1R)-1-[2-(trifluoromethyl)phenyl]ethoxy}thiophene-2-carboxamide] as the compound, how does the pIC50 (recombinant Plk1 protein) read?
A: 6.00 to 7.00

Q: With `C[C@@H](Oc1cc(-n2cnc3cnc(CN4CC(O)C4)cc32)sc1C(N)=O)c1ccccc1C(F)(F)F` [Example 96, 5-{6-[(3-hydroxyazetidin-1-yl)methyl]-1H-imidazo[4,5-c]pyridin-1-yl}-3-{(1R)-1-[2-(trifluoromethyl)phenyl]ethoxy}thiophene-2-carboxamide] as the compound, how does the pIC50 (recombinant Plk1 protein) read?
A: > 8.00

Q: With `C[C@@H](Oc1cc(-n2cnc3cnc(CN4CCN(C(N)=O)CC4)cc32)sc1C(N)=O)c1ccccc1C(F)(F)F` [Example 67, 4-{[1-(5-carbamoyl-4-{(1R)-1-[2-(trifluoromethyl)phenyl]ethoxy}-2-thienyl)-1H-imidazo[4,5-c]pyridin-6-yl]methyl}piperazine-1-carboxamide] as the compound, how does the pIC50 (recombinant Plk1 protein) read?
A: > 8.00

Q: With `CCc1ccccc1COc1cc(-n2cnc3cnc(CO)cc32)sc1C(N)=O` [Example 162, 3-[(2-ethylbenzyl)oxy]-5-[6-(hydroxymethyl)-1H-imidazo[4,5-c]pyridin-1-yl]thiophene-2-carboxamide] as the compound, how does the pIC50 (recombinant Plk1 protein) read?
A: 7.00 to 8.00

Q: With `NC(=O)c1sc(-n2cnc3cccnc32)cc1OCc1ccccc1C(F)(F)F` [Example 19, 5-(3H-Imidazo[4,5-b]pyridin-3-yl)-3-{[2-(trifluoromethyl)benzyl]oxy}thio-phene-2-carboxamide] as the compound, how does the pIC50 (recombinant Plk1 protein) read?
A: 7.00 to 8.00

Q: With `NC(=O)c1sc(-n2cnc3cnccc32)cc1OCc1ccccc1OC(F)(F)F` [Example 33, 5-(1H-imidazo[4,5-c]pyridin-1-yl)-3-{[2-(trifluoromethoxy)benzyl]oxy}thiophene-2-carboxamide] as the compound, how does the pIC50 (recombinant Plk1 protein) read?
A: 7.00 to 8.00

Q: With `CC(Oc1cc(-n2cnc3cnc(CN4CCN(C)CC4)cc32)sc1C(N)=O)c1ccccc1C(F)(F)F` (stereo not shown) [Example 45, 5-{6-[(4-methylpiperazin-1-yl)methyl]-1H-imidazo[4,5-c]pyridin-1-yl}-3-{-1-[2-(trifluoromethyl)phenyl]ethoxy}thiophene-2-carboxamide] as the compound, how does the pIC50 (recombinant Plk1 protein) read?
A: > 8.00

Q: With `CC(Oc1cc(-n2cnc3cc(CN4CCS(=O)(=O)CC4)ncc32)sc1C(N)=O)c1ccccc1F` (stereo not shown) [Example 161, 5-{6-[(1,1-dioxidothiomorpholin-4-yl)methyl]-3H-imidazo[4,5-c]pyridin-3-yl}-3-[-1-(2-fluorophenyl)ethoxy]thiophene-2-carboxamide] as the compound, how does the pIC50 (recombinant Plk1 protein) read?
A: 5.00 to 6.00
